# Experiments:
# [1] = system: Lactobacillus acidophilus; test: Antimicrobial activity against Lactobacillus acidophilus JCM 1132 by agar dilution method in presence of 5% laked sheep blood; format: functional
# [2] = system: Bacteroides heparinolyticus; test: Antimicrobial activity against Prevotella heparinolytica ATCC 35895 by agar dilution method in presence of 5% laked sheep blood; format: functional
# [3] = system: Gemella morbillorum; test: Antimicrobial activity against Gemella morbillorum ATCC 27824 by agar dilution method in presence of 5% laked sheep blood; format: functional
# [4] = system: Bifidobacterium pseudolongum; test: Antimicrobial activity against Bifidobacterium pseudolongum ATCC 25526 by agar dilution method in presence of 5% laked sheep blood; format: functional
# [5] = system: Propionibacterium granulosum; test: Antimicrobial activity against Propionibacterium granulosum ATCC 25564 by agar dilution method in presence of 5% laked sheep blood; format: functional; details: Cutibacterium granulosum
# [6] = system: Bacteroides fragilis; test: Antimicrobial activity against carbapenemase-producing Bacteroides fragilis GAI 30144 by agar dilution method in presence of 5% laked sheep blood; format: functional
# [7] = system: Bilophila wadsworthia; test: Antimicrobial activity against Bilophila wadsworthia WAL 7959 by agar dilution method in presence of 5% laked sheep blood; format: functional
# [8] = system: Campylobacter ureolyticus; test: Antimicrobial activity against Bacteroides ureolyticus NCTC 10941 by agar dilution method in presence of 5% laked sheep blood; format: functional
# [9] = system: Porphyromonas asaccharolytica; test: Antimicrobial activity against Porphyromonas asaccharolyticus ATCC 25260 by agar dilution method in presence of 5% laked sheep blood; format: functional; details: DSM 20707
# [10] = system: Desulfovibrio desulfuricans; test: Antimicrobial activity against Desulfovibrio desulfuricans ATCC 29577 by agar dilution method in presence of 5% laked sheep blood; format: functional
# [11] = system: Fusobacterium varium; test: Antimicrobial activity against Fusobacterium varium ATCC 8501 by agar dilution method in presence of 5% laked sheep blood; format: functional
# [12] = system: Bifidobacterium bifidum; test: Antimicrobial activity against Bifidobacterium bifidum JCM 1255 by agar dilution method in presence of 5% laked sheep blood; format: functional
# [13] = system: Bacteroides fragilis; test: Antimicrobial activity against Bacteroides fragilis NCTC 10581 by agar dilution method in presence of 5% laked sheep blood; format: functional
# [14] = system: Thomasclavelia ramosa; test: Antimicrobial activity against Clostridium ramosum ATCC 25582 by agar dilution method in presence of 5% laked sheep blood; format: functional
# [15] = system: Prevotella corporis; test: Antimicrobial activity against Prevotella corporis GAI 91000 by agar dilution method in presence of 5% laked sheep blood; format: functional
# [16] = system: Bacteroides fragilis; test: Antimicrobial activity against Bacteroides fragilis ATCC 25285 by agar dilution method in presence of 5% laked sheep blood; format: functional; details: NCTC 9343
# [17] = system: Phocaeicola vulgatus; test: Antimicrobial activity against Bacteroides vulgatus GAI 0673 by agar dilution method in presence of 5% laked sheep blood; format: functional
# [18] = system: Prevotella oris; test: Antimicrobial activity against Prevotella oris ATCC 33573 by agar dilution method in presence of 5% laked sheep blood; format: functional; details: Segatella oris
# [19] = system: Parvimonas micra; test: Antimicrobial activity against Parvimonas micra VPI 5464-1 by agar dilution method in presence of 5% laked sheep blood; format: functional
# [20] = system: Hoylesella oralis; test: Antimicrobial activity against Prevotella oralis ATCC 33269 by agar dilution method in presence of 5% laked sheep blood; format: functional
# [21] = system: Bacteroides eggerthii DSM 20697; test: Antimicrobial activity against Bacteroides eggerthii ATCC 27754 by agar dilution method in presence of 5% laked sheep blood; format: functional
# [22] = system: Anaerococcus prevotii; test: Antimicrobial activity against Anaerococcus prevotii ATCC 9321 by agar dilution method in presence of 5% laked sheep blood; format: functional
# [23] = system: Lactobacillus brevis; test: Antimicrobial activity against Lactobacillus brevis subsp. brevis JCM 1059 by agar dilution method in presence of 5% laked sheep blood; format: functional; details: Levilactobacillus brevis
# [24] = system: Bacteroides fragilis; test: Antimicrobial activity against Bacteroides fragilis GAI 7955 by agar dilution method in presence of 5% laked sheep blood; format: functional
# [25] = Antimicrobial activity against Desulfovibrio piger DSM 749 by agar dilution method in presence of 5% laked sheep blood; format: functional, Desulfovibrio piger ATCC 29098
# [26] = system: Limosilactobacillus fermentum; test: Antimicrobial activity against Lactobacillus fermentum JCM 1173 by agar dilution method in presence of 5% laked sheep blood; format: functional
# [27] = system: Enterocloster clostridioformis; test: Antimicrobial activity against Clostridium clostridioforme NCTC 11224 by agar dilution method in presence of 5% laked sheep blood; format: functional
# [28] = system: Lacticaseibacillus casei; test: Antimicrobial activity against Lactobacillus casei subsp. casei JCM 1134 by agar dilution method in presence of 5% laked sheep blood; format: functional
# [29] = system: Prevotella bivia; test: Antimicrobial activity against Prevotella bivia ATCC 29303 by agar dilution method in presence of 5% laked sheep blood; format: functional; details: DSM 20514
# [30] = system: Clostridium septicum; test: Antimicrobial activity against Clostridium septicum ATCC 12464 by agar dilution method in presence of 5% laked sheep blood; format: functional
# [31] = system: Peptoniphilus asaccharolyticus; test: Antimicrobial activity against Peptoniphilus asaccharolyticus WAL 3218 by agar dilution method in presence of 5% laked sheep blood; format: functional
# [32] = system: Peptoniphilus indolicus; test: Antimicrobial activity against Peptoniphilus indolicus GAI 0915 by agar dilution method in presence of 5% laked sheep blood; format: functional
# [33] = Antimicrobial activity against Finegoldia magna ATCC 29328 by agar dilution method in presence of 5% laked sheep blood; format: functional
# [34] = system: Bacteroides fragilis; test: Antimicrobial activity against Bacteroides fragilis GAI 0558 by agar dilution method in presence of 5% laked sheep blood; format: functional
# [35] = Antimicrobial activity against Bifidobacterium longum subsp. longum ATCC 15707 by agar dilution method in presence of 5% laked sheep blood; format: functional
# [36] = system: Porphyromonas gingivalis; test: Antimicrobial activity against Porphyromonas gingivalis ATCC 33277 by agar dilution method in presence of 5% laked sheep blood; format: functional
# [37] = system: Bacteroides thetaiotaomicron; test: Antimicrobial activity against Bacteroides thetaiotaomicron ATCC 29741 by agar dilution method in presence of 5% laked sheep blood; format: functional
# [38] = system: Schaalia odontolytica; test: Antimicrobial activity against Actinomyces odontolyticus GAI 91002 by agar dilution method in presence of 5% laked sheep blood; format: functional
# [39] = system: Capnocytophaga ochracea; test: Antimicrobial activity against Capnocytophaga ochracea GAI 5586 by agar dilution method in presence of 5% laked sheep blood; format: functional
# [40] = system: Lactobacillus salivarius; test: Antimicrobial activity against Lactobacillus salivarius subsp. salivarius JCM 1231 by agar dilution method in presence of 5% laked sheep blood; format: functional; details: Ligilactobacillus salivarius
# [41] = system: Veillonella parvula; test: Antimicrobial activity against Veillonella parvula ATCC 10790 by agar dilution method in presence of 5% laked sheep blood; format: functional
# [42] = system: Prevotella intermedia; test: Antimicrobial activity against Prevotella intermedia ATCC 25611 by agar dilution method in presence of 5% laked sheep blood; format: functional
# [43] = system: Streptococcus intermedius; test: Antimicrobial activity against Streptococcus intermedius ATCC 27335 by agar dilution method in presence of 5% laked sheep blood; format: functional
# [44] = system: Prevotella buccae; test: Antimicrobial activity against Prevotella buccae ATCC 33574 by agar dilution method in presence of 5% laked sheep blood; format: functional; details: Segatella buccae
# [45] = system: Bacteroides fragilis; test: Antimicrobial activity against carbapenemase-producing Bacteroides fragilis GAI 30079 by agar dilution method in presence of 5% laked sheep blood; format: functional
# [46] = system: Peptostreptococcus anaerobius; test: Antimicrobial activity against Peptostreptococcus anaerobius ATCC 27337 by agar dilution method in presence of 5% laked sheep blood; format: functional
structure (smiles),measurement,setting,value
CCC[C@@H]1C[C@@H](C(=O)N[C@@H]([C@H]2O[C@H](SC)[C@H](O)[C@@H](O)[C@H]2O)[C@H](C)Cl)N(C)C1 [CLINDAMYCIN],MIC,[1],1 µg/mL
same,MIC,[2],≤ 0.03 µg/mL
same,MIC,[3],0.06 µg/mL
same,MIC,[4],≤ 0.03 µg/mL
same,MIC,[5],≤ 0.03 µg/mL
same,MIC,[6],2 µg/mL
same,MIC,[7],0.5 µg/mL
same,MIC,[8],0.25 µg/mL
same,MIC,[9],≤ 0.03 µg/mL
same,MIC,[10],0.5 µg/mL
same,MIC,[11],4 µg/mL
same,MIC,[12],≤ 0.03 µg/mL
same,MIC,[13],≤ 0.03 µg/mL
same,MIC,[14],8 µg/mL
same,MIC,[15],≤ 0.03 µg/mL
same,MIC,[16],1 µg/mL
same,MIC,[17],0.06 µg/mL
same,MIC,[18],≤ 0.03 µg/mL
same,MIC,[19],0.25 µg/mL
same,MIC,[20],≤ 0.03 µg/mL
same,MIC,[21],≤ 0.03 µg/mL
same,MIC,[22],0.125 µg/mL
same,MIC,[23],≤ 0.03 µg/mL
same,MIC,[24],1 µg/mL
same,MIC,[25],0.06 µg/mL
same,MIC,[26],≤ 0.03 µg/mL
same,MIC,[27],0.25 µg/mL
same,MIC,[28],2 µg/mL
same,MIC,[29],≤ 0.03 µg/mL
same,MIC,[30],≤ 0.03 µg/mL
same,MIC,[31],> 128 µg/mL
same,MIC,[32],32 µg/mL
same,MIC,[33],2 µg/mL
same,MIC,[34],0.5 µg/mL
same,MIC,[35],≤ 0.03 µg/mL
same,MIC,[36],≤ 0.03 µg/mL
same,MIC,[37],4 µg/mL
same,MIC,[38],0.25 µg/mL
same,MIC,[39],≤ 0.03 µg/mL
same,MIC,[40],0.06 µg/mL
same,MIC,[41],≤ 0.03 µg/mL
same,MIC,[42],≤ 0.03 µg/mL
same,MIC,[43],0.25 µg/mL
same,MIC,[44],≤ 0.03 µg/mL
same,MIC,[45],> 128 µg/mL
same,MIC,[46],0.25 µg/mL
